Measured values taken from US6375979B2 (Somerset Pharmaceuticals, Inc., priority 1995, dated 2002).

Target: T1, MAO-A (Cavia porcellus, UniProt H0UVA2)
T1 sequence (H0UVA2 1-461): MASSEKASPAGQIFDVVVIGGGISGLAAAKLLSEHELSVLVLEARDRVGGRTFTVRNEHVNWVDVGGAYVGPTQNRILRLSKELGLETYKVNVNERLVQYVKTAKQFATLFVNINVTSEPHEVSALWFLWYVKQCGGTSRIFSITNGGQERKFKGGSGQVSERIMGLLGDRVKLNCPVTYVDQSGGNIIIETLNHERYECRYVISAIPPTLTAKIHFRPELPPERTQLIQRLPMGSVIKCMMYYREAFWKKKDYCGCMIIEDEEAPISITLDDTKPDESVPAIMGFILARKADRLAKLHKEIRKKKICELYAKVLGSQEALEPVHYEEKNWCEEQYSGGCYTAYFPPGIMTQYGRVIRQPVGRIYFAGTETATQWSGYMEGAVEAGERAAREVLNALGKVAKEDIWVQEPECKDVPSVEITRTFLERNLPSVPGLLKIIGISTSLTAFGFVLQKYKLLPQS
Assay: In vivo MAO-A inhibition in guinea pig cortex (hippocampus) after 5 s.c. treatments
Conditions: 10 mg/kg, highest dose tested

`C#CCN[C@@H](C)Cc1ccccc1` (single isomer, unassigned) [S(+)DMS, ent-desmethylselegiline] was tested. Which “inhibition of MAO-A activity in vivo” value did it give?
The value was “did not cause any observable inhibition”.
